This passage reports IC50, Activity and inhibition results from ChEMBL document CHEMBL5634101, “Discovery of NLRP3 inhibitors using machine learning: Identification of a hit compound to treat NLRP3 activation-driven diseases” (Eur J Med Chem, 2023).

Activity calls are given as the source filed them. The rule behind the calls is not given here.

In data set [1] the target is T1, NACHT, LRR and PYD domains-containing protein 3 (Homo sapiens, UniProt Q96P20). Nature of the data set: Inhibition of NLRP3 inflammasome activation in PMA-differentiated human THP-1 cells assessed as reduction in IL-1beta secretion pre-stimulated with PMA for 24 hrs followed by compound addition and measured after 30 mins by ELISA. It counts as cell-based. (In general: An ELISA detects its analyte on a solid surface through an enzyme-linked reagent.)

The subject of data set [2] is BMDM. Nature of the data set: Cytotoxicity against C57 mouse BMDM cells assessed as reduction in cell viability upto 50 uM incubated for 24 hrs by CCK8 assay. It counts as toxicity, cell-based. (Tetrazolium assays rely on reduction of a dye to a coloured formazan, in cell work by metabolically active cells.)
The subject of another data set is THP-1. The experiment in a line: Cytotoxicity against PMA-differentiated human THP-1 cells assessed as reduction in cell viability upto 50 uM incubated for 24 hrs by CCK8 assay. The conditions noted are these: thp-1, 24 h. Type of data set: toxicity, cell-based.
In another data set the test system is L02. The experiment in a line: Cytotoxicity against human L02 cells assessed as reduction in cell viability upto 50 uM incubated for 24 hrs by CCK8 assay. It counts as toxicity, cell-based. To be noted: l02, 24 h.
Another data set relates to HEK-293T. Nature of the data set: Cytotoxicity against HEK293T cells assessed as reduction in cell viability upto 50 uM incubated for 24 hrs by CCK8 assay. Type of data set: toxicity, cell-based. To be noted: human.
Data set [3] has as its target NACHT, LRR and PYD domains-containing protein 3 (Mus musculus) (UniProt Q8R4B8). Nature of the data set: Inhibition of NLRP3 inflammasome activation in LPS/Nigericin induced C57 mouse BMDM cells assessed as reduction in […] preincubated with LPS for 3 hrs followed by compound addition for 30 mins prior to nigericin addition and measured after 30 mins by PI/Hoechst 33342 staining based analysis. It counts as cell-based. The conditions noted are these: time 1.0 hrs.

For data set [4] the target is unchanged. The experiment in a line: Inhibition of NLRP3 inflammasome activation in LPS/Nigericin induced C57 mouse BMDM cells assessed as reduction in ASC expression in cell supernatant at 2.5 to 10 uM preincubated with LPS for 3 hrs followed by compound addition for 30 mins prior to nigericin addition and measured after 30 mins by Western blot analysis. Type of data set: cell-based. The conditions noted are these: dose 2.5-10 µM, time 1.0 hrs. Background: Immunoblotting shows a protein as a band on a membrane.

Data set [5] relates to BMDM. The experiment in a line: Effect on TNF-alpha secretion in LPS/Nigericin induced C57 mouse BMDM cells at 1.25 to 10 uM preincubated with LPS for 3 hrs followed by compound addition for 30 mins prior to nigericin addition and measured after 30 mins by ELISA. Type of data set: functional, cell-based. The conditions noted are these: dose 1.25-10 µM, time 1.0 hrs.
Data set [6] addresses NACHT, LRR and PYD domains-containing protein 3 (Mus musculus) (UniProt Q8R4B8). The experiment in a line: Inhibition of NLRP3 inflammasome activation in LPS/Nigericin induced C57 mouse BMDM cells assessed as reduction in IL-1beta maturation in cell supernatant at 2.5 to 10 uM preincubated with LPS for 3 hrs followed by compound addition for 30 mins prior to nigericin addition and measured after 30 mins by Western blot analysis. It counts as cell-based. To be noted: dose 2.5-10 µM, time 1.0 hrs.

Data set [7] shares this target. Nature of the data set: Inhibition of NLRP3 inflammasome activation in LPS/Nigericin induced C57 mouse BMDM cells assessed as reduction in pro-IL-1beta expression in cell supernatant at 2.5 to 10 uM preincubated with LPS for 3 hrs followed by compound addition for 30 mins prior to nigericin addition and measured after 30 mins by Western blot analysis. Type of data set: cell-based. The conditions noted are these: dose 2.5-10 µM, time 1.0 hrs.

Data set [8] has the same target. The experiment in a line: Inhibition of NLRP3 inflammasome activation in LPS/Nigericin induced C57 mouse BMDM cells assessed as reduction in active caspase-1 in cell supernatant at 2.5 to 10 uM preincubated with LPS for 3 hrs followed by compound addition for 30 mins prior to nigericin addition and measured after 30 mins by Western blot analysis. Type of data set: cell-based. The conditions noted are these: dose 2.5-10 µM, time 1.0 hrs.

Data set [9] has the same target. The experiment in a line: Inhibition of NLRP3 inflammasome activation in LPS/Nigericin induced C57 mouse BMDM cells assessed as reduction in pro-caspase-1(p45) expression in cell supernatant at 2.5 to 10 uM preincubated with LPS for 3 hrs followed by compound addition for 30 mins prior to nigericin addition and measured after 30 mins by Western blot analysis. It counts as cell-based. The conditions noted are these: dose 2.5-10 µM, time 1.0 hrs.

The target is the same in data set [10]. Nature of the data set: Inhibition of NLRP3 inflammasome activation in LPS/Nigericin induced C57 mouse BMDM cells assessed as reduction in NEK7 expression in cell supernatant at 2.5 to 10 uM preincubated with LPS for 3 hrs followed by compound addition for 30 mins prior to nigericin addition and measured after 30 mins by Western blot analysis. It counts as cell-based. To be noted: dose 2.5-10 µM, time 1.0 hrs.

For data set [11] the target is unchanged. Nature of the data set: Inhibition of NLRP3 inflammasome activation in LPS/Nigericin induced C57 mouse BMDM cells assessed as reduction in intracellular NLRP3 expression in cell supernatant at 2.5 to 10 uM preincubated with LPS for 3 hrs followed by compound addition for 30 mins prior to nigericin addition and measured after 30 mins by Western blot analysis. It counts as cell-based. To be noted: dose 2.5-10 µM, time 1.0 hrs.

Data set [12] addresses T1, NACHT, LRR and PYD domains-containing protein 3. Nature of the data set: Inhibition of NLRP3 inflammasome activation in […]-differentiated human THP-1 cells assessed as effect on ROS production at 10 uM preincubated with LPS for 3 hrs followed by compound addition for 30 mins prior to nigericin addition and measured after 30 mins by MitoSOX dye/Hoechst 33342 staining based confocal microscopic analysis. The conditions noted are these: time 1.0 hrs. Type of data set: cell-based.

Data set [13] shares this target. Nature of the data set: Inhibition of NLRP3 inflammasome activation in […]-differentiated human THP-1 cells assessed as effect on potassium efflux at 2.5 to 10 uM preincubated with LPS for 3 hrs followed by compound addition for 30 mins prior to nigericin addition and measured after 30 mins by fluorescence based analysis. Type of data set: cell-based. The conditions noted are these: dose 2.5-10 µM, time 1.0 hrs.

For data set [14] the target is unchanged. Nature of the data set: Inhibition of NLRP3 inflammasome activation in […]-differentiated human THP-1 cells assessed as effect on chloride efflux at 2.5 to 10 uM preincubated with LPS for 3 hrs followed by compound addition for 30 mins prior to nigericin addition and measured after 30 mins by fluorescence based analysis. To be noted: dose 2.5-10 µM, time 1.0 hrs. It counts as cell-based.

Data set [15] has as its target NACHT, LRR and PYD domains-containing protein 3 (Mus musculus) (UniProt Q8R4B8). Nature of the data set: Inhibition of NLRP3 inflammasome activation in C57 mouse BMDM cells assessed as reduction in IL-1beta secretion at 5 uM preincubated with LPS for 3 hrs followed by compound addition for 30 mins prior to nigericin addition and measured after 30 mins by Western blot analysis. Type of data set: cell-based. To be noted: time 1.0 hrs.

Data set [16] shares this target. The experiment in a line: Inhibition of NLRP3 inflammasome activation in C57 mouse BMDM cells assessed as reduction in caspase-1 activation at 5 uM preincubated with LPS for 3 hrs followed by compound addition for 30 mins prior to nigericin addition and measured after 30 mins by Western blot analysis. It counts as cell-based. The conditions noted are these: time 1.0 hrs.

Data set [17] has as its target T2, Interferon-inducible protein AIM2 (Mus musculus) (UniProt Q91VJ1).
T2 sequence (whole entry): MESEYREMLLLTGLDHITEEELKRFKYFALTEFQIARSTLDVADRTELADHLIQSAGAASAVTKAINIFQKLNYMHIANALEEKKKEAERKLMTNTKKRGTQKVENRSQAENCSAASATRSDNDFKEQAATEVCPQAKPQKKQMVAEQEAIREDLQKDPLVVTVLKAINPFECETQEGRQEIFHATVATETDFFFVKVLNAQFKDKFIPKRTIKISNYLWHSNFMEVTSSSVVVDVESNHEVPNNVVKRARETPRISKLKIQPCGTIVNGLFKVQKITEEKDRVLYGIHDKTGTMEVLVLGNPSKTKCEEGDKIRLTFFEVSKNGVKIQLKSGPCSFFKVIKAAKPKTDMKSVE
The experiment in a line: Inhibition of AIM2 inflammasome activation in C57 mouse BMDM cells assessed as reduction in IL-1beta secretion at 5 uM preincubated with LPS for 3 hrs followed by poly(dA:dT) stimulation for 4 hrs by Western blot analysis. It counts as cell-based.

Chain of NACHT, LRR and PYD domains-containing protein 3 (Mus musculus) (Q8R4B8 whole entry, the tested form may be a part): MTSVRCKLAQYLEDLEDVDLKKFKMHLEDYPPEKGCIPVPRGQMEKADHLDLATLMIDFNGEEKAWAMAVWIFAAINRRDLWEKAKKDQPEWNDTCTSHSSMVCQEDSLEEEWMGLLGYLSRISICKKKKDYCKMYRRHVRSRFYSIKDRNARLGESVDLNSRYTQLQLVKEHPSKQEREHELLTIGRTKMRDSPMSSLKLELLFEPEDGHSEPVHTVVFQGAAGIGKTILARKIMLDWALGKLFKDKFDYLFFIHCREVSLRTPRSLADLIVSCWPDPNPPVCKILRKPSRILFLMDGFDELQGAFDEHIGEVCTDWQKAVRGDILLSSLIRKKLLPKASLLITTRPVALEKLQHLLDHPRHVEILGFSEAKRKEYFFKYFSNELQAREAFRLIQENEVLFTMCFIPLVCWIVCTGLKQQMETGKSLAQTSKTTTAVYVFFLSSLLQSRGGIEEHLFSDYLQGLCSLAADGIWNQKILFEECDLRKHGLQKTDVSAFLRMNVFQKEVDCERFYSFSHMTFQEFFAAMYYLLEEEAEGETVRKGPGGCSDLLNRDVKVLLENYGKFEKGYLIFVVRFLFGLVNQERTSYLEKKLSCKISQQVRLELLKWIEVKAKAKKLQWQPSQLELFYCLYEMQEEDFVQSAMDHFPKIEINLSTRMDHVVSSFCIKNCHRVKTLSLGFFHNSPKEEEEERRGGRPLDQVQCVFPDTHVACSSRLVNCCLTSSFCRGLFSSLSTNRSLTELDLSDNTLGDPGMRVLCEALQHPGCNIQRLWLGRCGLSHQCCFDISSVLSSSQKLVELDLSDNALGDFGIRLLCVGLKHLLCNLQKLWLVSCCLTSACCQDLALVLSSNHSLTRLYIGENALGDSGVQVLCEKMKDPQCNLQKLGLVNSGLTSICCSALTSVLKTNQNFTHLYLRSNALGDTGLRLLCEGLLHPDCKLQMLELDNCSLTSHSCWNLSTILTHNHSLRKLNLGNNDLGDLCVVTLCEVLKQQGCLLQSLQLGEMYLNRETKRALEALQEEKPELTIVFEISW
T1 sequence (Q96P20 whole entry, the tested form may be a part): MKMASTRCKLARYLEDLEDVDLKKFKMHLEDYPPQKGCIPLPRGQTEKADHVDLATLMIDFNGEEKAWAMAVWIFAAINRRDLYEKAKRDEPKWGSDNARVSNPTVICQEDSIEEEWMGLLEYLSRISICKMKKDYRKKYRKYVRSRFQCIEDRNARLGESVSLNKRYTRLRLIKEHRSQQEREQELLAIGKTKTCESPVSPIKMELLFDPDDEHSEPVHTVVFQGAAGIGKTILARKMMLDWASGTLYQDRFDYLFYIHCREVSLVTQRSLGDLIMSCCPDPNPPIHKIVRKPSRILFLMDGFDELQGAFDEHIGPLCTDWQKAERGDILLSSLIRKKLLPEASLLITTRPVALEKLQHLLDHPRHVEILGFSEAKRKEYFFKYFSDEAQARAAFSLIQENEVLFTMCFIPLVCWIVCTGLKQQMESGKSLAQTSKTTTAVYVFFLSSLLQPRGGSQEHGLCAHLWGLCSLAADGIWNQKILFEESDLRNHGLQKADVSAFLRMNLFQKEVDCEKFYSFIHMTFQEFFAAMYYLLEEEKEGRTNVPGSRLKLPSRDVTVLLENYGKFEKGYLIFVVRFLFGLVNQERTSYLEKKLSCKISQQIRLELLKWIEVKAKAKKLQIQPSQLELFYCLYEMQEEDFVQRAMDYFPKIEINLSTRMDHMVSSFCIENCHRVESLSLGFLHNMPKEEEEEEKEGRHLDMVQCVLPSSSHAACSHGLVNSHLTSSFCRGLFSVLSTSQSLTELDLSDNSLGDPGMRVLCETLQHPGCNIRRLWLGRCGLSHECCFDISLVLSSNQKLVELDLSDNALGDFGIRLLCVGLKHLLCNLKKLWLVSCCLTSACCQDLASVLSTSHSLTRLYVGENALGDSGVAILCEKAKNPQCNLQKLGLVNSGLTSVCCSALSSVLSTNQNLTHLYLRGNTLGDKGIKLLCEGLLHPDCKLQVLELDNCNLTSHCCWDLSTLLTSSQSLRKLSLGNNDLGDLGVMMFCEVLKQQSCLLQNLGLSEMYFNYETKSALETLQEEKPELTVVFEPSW

The IC50 is the concentration that inhibits the measured activity by half. In the case of `COc1ccc(N2C(=O)/C(=C\c3ccccc3C(F)(F)F)SC2=S)cc1`, the IC50 in data set [1] is 2300 nM. The Activity result in the data set on BMDM [2], in the data set on THP-1, with L02 and in the data set on HEK-293T was “Non-Toxic” throughout. The inhibition entry in data set [3], in [6], in [8], in data set [15] and in [16] was “Active” in each case. Besides, the inhibition result in data set [4], in data set [7], in [9], in data set [10], in data set [11] and in data set [12] was “inactive” throughout. Also, the inhibition result in data set [13], in data set [14] and in data set [17] was “inactive” in each case. Moreover, the result with BMDM [5] was inactive.
